Measured values from the RepoRT retention time repository.

Test: A: acetonitrile + 0.1% formic acid + 10 mM ammonium formate; B: 5% water + 95% acetonitrile + 0.1% formic acid + 10 mM ammonium formate; gradient (min/%B) 0/10 2/10 22/100 27/100 27.1/10
Conditions: stereoisomer not certain

Row | LC retention time [min] | SMILES
1 | 0.412 | CC(=O)Oc1cc(C)c(OC(C)=O)c2ccccc12 [Vitamin K4]
2 | 2.92 | O=c1[nH]c(=O)c2[nH]cnc2[nH]1 [Xanthine]
3 | 7.42 | O=c1[nH]c(=O)c2ncn(C3OC(COP(=O)(O)O)C(O)C3O)c2[nH]1 (stereo not given) [Xanthosine 5'-monophosphate]
4 | 5.1 | O=c1[nH]c(=O)c2ncn(C3OC(CO)C(O)C3O)c2[nH]1 (stereo not given) [Xanthosine]
5 | 5.38 | OCC(O)C(O)C(O)CO (stereo not given) [Xylitol]
6 | 2.3 | CC(N)c1ccccc1 (stereo not drawn) [alpha-Methylbenzylamine]
7 | 6.56 | O=P(O)(O)OC(CO)CO [beta-Glycerophosphoric acid]
8 | 6.75 | OC[C@H]1O[C@@H](O[C@H]2[C@H](O)[C@@H](O)[C@H](O)O[C@@H]2CO)[C@H](O)[C@@H](O)[C@H]1O [beta-Lactose]
9 | 0.452 | C=C1CCC2CC1C2(C)C (stereo not drawn) [beta-Pinene]
10 | 5.83 | NCCCC(=O)O [gamma-Aminobutyric acid]
11 | 3.46 | O=C(O)CNC(=O)c1cccc(O)c1 [m-Hydroxyhippuric Acid]
12 | 0.555 | Nc1ccc(C(=O)O)cc1 [p-Aminobenzoic acid]
13 | 7.21 | C[N+](C)(C)CCOP(=O)([O-])OCC(O)CO (stereo not given) [sn-glycero-3-Phosphocholine]
14 | 5.56 | O=C(O)C/C=C/CC(=O)O [trans-2-Butene-1,4-dicarboxylic Acid]
15 | 0.485 | O=C(O)/C=C/c1ccccc1 [trans-Cinnamic acid]

The next lines start with the molecule.

Row | SMILES | LC retention time [min]
16 | NC(=O)NC(CC(=O)O)C(=O)O (stereo not given) [Ureidosuccinic acid] | 5.96
17 | O=c1ccn(C2OC(COP(=O)(O)OP(=O)(O)O)C(O)C2O)c(=O)[nH]1 (stereo not given) [Uridine 5'-diphosphate] | 8.14
18 | O=c1ccn(C2OC(COP(=O)(O)O)C(O)C2O)c(=O)[nH]1 (stereo not given) [Uridine-5'-phosphoric acid] | 6.86
19 | O=C(O)C=Cc1cnc[nH]1 [Urocanic acid] | 1.89
20 | CCCCC(=O)N(Cc1ccc(-c2ccccc2-c2nn[nH]n2)cc1)C(C(=O)O)C(C)C (stereo not given) [Valsartan] | 0.733
21 | CNC(CC(C)C)C(=O)NC1C(=O)NC(CC(N)=O)C(=O)NC2C(=O)NC3C(=O)NC(C(=O)NC(C(=O)O)c4cc(O)cc(O)c4-c4cc3ccc4O)C(O)c3ccc(c(Cl)c3)Oc3cc2cc(c3OC2OC(CO)C(O)C(O)C2OC2CC(C)(N)C(O)C(C)O2)Oc2ccc(cc2Cl)C1O (stereo not given) [Vancomycin] | 8.2
22 | COc1cc(C=O)ccc1O [Vanillin] | 0.435
23 | CCCc1nc(C)c2c(=O)[nH]c(-c3cc(S(=O)(=O)N4CCN(CC)CC4)ccc3OCC)nn12 [Vardenafil] | 1.08
24 | C=C1CCC(O)CC1=CC=C1CCCC2(C)C1CCC2C(C)CCCC(C)C (stereo not given) [Vitamin D3] | 0.407
25 | O=C/C=C/c1ccccc1 [trans-Cinnamaldehyde] | 0.43
